The values below are quoted from earlier work in patent publication US12691049B2, “Process for producing hair treatment products by mixing organic C1-C6-alkoxysilanes and alkalizing agents in specific molar ratios” (Henkel AG & Co. KGaA, priority 2021, dated 2026).

For the compound “mixture of the sodium salts of mono and sis-sulfonic acids of 2-(2-quinolyl)-1H-indene-1,3(2H)-dione [Acid Yellow 3]”, under “25° C.”, the solubility in water is 20 mg/mL.
Consider `O=S(=O)([O-])c1ccc(N=Nc2c(O)ccc3ccccc23)cc1.[Na+]` [Acid Orange 7, sodium salt of 4-[(2-hydroxy-1-naphthyl)azo]benzene sulphonate], for which, under “25° C.”, the solubility in water result is “more than 7 g/L”.
On to `O=C([O-])C1=NN(c2ccc(S(=O)(=O)[O-])cc2)C(=O)C1N=Nc1ccc(S(=O)(=O)[O-])cc1.[Na+].[Na+].[Na+]` (stereo not drawn) [Acid Yellow 23, trisodium salt of 4,5-dihydro-5-oxo-1-(4-sulfophenyl)-4-((4-sulfophenyl)azo)-1H-pyrazole-3-carboxylic acid], for which the “solubility in water (in words)” value (at 25° C.) was “readily soluble in water”.
Consider `Nc1cc(S(=O)(=O)[O-])cc2cc(S(=O)(=O)[O-])c(N=Nc3ccccc3)c(O)c12.[Na+].[Na+]` [Acid Red 33, disodium salt of 5-amino-4-hydroxy-3-(phenylazo)-naphthalene-2,7-disulfonate], for which the solubility in water (25° C.) is 2.5 mg/mL.
Turning to `CCN(Cc1cccc(S(=O)(=O)[O-])c1)c1ccc(C(=C2C=CC(=[N+](CC)Cc3cccc(S(=O)(=O)[O-])c3)C=C2)c2ccccc2S(=O)(=O)[O-])cc1.[Na+].[Na+]` [Acid Blue 9], the water solubility entry (25° C.) is given as “more than 20 wt %”.
As to `O=C([O-])c1c(Cl)c(Cl)c(Cl)c(Cl)c1-c1c2cc(Br)c(=O)c(Br)c-2oc2c(Br)c([O-])c(Br)cc12.[Na+].[Na+]` [Acid Red 92, disodium salt of 3,4,5,6-tetrachloro-2-(1,4,5,8-tetrabromo-6-hydroxy-3-oxanthene-9-yl) benzoic acid], under “25° C.”, the solubility in water entry is reported as “greater than 10 g/L”.
